{
  "source": "patent US11578315B2",
  "about": "“Truncated guinea pig L-asparaginase variants and methods of use” (THE BOARD OF TRUSTEES OF THE UNIVERSITY OF ILLINOIS, priority 2017, dated 2023)",
  "key": {"[1]": {"tested_on": "guinea pig L-asparaginase (gpASNase1, GpA), wild type, SEQ ID NO:1", "settings": "Schalk, et al. (2014), cited from earlier work"}, "[2]": {"target": "T1, guinea pig L-asparaginase (gpASNase1, GpA), wild type, full length (GpA-FL), SEQ ID NO:1 (Cavia porcellus, UniProt H0W0T5)", "T1 construct": "Full length GpA (GpA-FL); made in house", "T1 sequence (H0W0T5 1-565)": "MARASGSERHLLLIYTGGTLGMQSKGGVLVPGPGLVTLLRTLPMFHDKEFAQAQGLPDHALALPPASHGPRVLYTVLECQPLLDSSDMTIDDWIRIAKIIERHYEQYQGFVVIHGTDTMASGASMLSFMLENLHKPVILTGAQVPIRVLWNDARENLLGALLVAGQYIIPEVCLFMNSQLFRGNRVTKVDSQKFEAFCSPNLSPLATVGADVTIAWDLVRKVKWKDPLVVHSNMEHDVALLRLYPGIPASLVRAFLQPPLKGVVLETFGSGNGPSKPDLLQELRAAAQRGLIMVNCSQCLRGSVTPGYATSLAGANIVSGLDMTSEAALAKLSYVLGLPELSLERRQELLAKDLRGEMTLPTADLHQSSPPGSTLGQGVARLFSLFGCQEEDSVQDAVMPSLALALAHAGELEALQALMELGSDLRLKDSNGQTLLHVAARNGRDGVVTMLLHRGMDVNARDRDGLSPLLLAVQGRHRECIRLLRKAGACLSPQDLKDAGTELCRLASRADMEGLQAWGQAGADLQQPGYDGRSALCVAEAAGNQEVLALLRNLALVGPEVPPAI", "experiment": "L-asparaginase kinetics, NADH-dependent enzyme-coupled assay", "assay_type": "biochemical", "description": "(§1) The catalytic activity of the clones was determined using a spectroscopic NADH-dependent enzyme-coupled assay (Fernandez, et al. (2013) Int. J. Clin. Exp. Med. 6:478-487; Hejazi, et al. (2002) Biochem. J. 364:129-136), which measures the production of L-aspartic acid (Asp) through the 1:1 oxidation of reduced NADH. The conversion of NADH to NAD was measured spectrophotometrically as a decrease in absorbance at 340 nm at 37° C. All measurements were taken in triplicate in a buffer containing 100 mM Tris pH 7.5, 0.4 mM α-ketoglutarate and 0.4 mM NADH with 50 nM (hASNase1, hN-gC); 10 nM (gpASNase1, gN-hC, 63-hC, 64-hC, 65-hC, SA-hC) or 3 nM (ansB) enzyme. Glutamic-oxalacetic transaminase (Sigma) and malic dehydrogenase (Sigma) were helper enzymes for the coupled enzymatic reactions; 5 and 1 unit were used, respectively. Data were fit to the Michaelis-Menten equation using SigmaPlot (Systat Software Inc). Due to the cooperative nature of hASNase1, this enzyme was analyzed using the Hill equation."}, "[3]": {"target": "T2, E. coli L-asparaginase ansB (type II) (Escherichia coli, UniProt P00805)", "T2 construct": "made in house", "T2 sequence (P00805 23-348)": "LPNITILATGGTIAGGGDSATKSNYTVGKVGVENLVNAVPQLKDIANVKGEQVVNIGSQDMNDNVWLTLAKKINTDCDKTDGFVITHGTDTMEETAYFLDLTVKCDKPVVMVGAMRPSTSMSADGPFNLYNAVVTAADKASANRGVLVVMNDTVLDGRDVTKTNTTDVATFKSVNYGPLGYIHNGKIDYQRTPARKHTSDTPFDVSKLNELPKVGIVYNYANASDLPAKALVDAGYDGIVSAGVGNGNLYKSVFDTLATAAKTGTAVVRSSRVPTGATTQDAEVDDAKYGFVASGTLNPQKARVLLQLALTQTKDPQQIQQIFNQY", "experiment": "L-asparaginase kinetics, NADH-dependent enzyme-coupled assay", "assay_type": "biochemical", "settings": "50 μM Asn, pH 7.5, 37° C.", "description": "as §1"}, "[4]": {"target": "human L-asparaginase 1 (hASNase1), wild type, SEQ ID NO:2 (Homo sapiens, UniProt Q86U10)", "sequence (Q86U10 whole entry)": "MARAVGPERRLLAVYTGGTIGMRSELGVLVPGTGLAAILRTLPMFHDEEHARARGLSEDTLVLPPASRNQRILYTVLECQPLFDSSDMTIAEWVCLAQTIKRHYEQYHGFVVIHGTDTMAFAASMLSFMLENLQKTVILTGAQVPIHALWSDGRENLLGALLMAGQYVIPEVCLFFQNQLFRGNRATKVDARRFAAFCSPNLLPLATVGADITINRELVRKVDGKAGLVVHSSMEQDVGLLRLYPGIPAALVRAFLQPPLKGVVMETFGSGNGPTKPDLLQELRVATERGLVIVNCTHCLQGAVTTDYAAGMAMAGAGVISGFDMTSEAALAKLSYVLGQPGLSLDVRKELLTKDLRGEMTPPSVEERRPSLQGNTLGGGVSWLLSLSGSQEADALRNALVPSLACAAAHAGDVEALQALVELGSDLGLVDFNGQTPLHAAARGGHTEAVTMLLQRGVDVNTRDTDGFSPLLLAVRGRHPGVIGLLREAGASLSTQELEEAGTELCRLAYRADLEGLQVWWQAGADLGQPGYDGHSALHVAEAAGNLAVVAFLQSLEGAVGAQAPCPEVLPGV", "experiment": "L-asparaginase kinetics, NADH-dependent enzyme-coupled assay", "assay_type": "biochemical", "description": "as §1"}, "[5]": {"tested_on": "E. coli L-asparaginase iiiA", "settings": "in words; cited from earlier work"}, "[6]": {"tested_on": "human L-asparaginase type I (hASNase1), SEQ ID NO:2", "settings": "in words; Karamitros & Konrad (2014); Schalk, et al. (2014); cited from earlier work"}, "[7]": {"target": "T3, guinea pig L-asparaginase (GpA) variant 10K-PEGylated-GpA369-C198A, SEQ ID NO:51 (Cavia porcellus, UniProt H0W0T5, C198A)", "T3 construct": "made in house", "T3 sequence (H0W0T5 1-369 C198A)": "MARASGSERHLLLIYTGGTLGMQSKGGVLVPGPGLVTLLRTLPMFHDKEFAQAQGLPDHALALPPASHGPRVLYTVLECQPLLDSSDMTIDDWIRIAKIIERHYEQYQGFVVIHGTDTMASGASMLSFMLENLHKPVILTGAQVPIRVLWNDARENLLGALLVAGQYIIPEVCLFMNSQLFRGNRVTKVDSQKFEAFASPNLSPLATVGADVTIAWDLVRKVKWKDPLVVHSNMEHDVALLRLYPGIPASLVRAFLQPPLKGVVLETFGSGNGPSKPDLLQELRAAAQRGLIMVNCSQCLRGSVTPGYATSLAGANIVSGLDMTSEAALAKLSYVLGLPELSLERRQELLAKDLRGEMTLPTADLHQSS", "experiment": "L-asparaginase activity, kobs at 2 mM Asn", "assay_type": "biochemical", "settings": "linear PEG", "description": "as §1\n(§2) Each of the variants listed in Table 9 were recombinantly expressed, purified and PEGylated with one or more of mPEG-10K, mPEG-20K and mPEG-40K (Table 10). As determined by SDS-PAGE analysis, the size of the PEGylated enzymes increased with an increase in the number of active cysteines. For example, using maleimide-PEG10K, GpA369(hum)-C198A migrated at a higher molecular weight after PEGylation (due to the extra 10K Da supplied by the PEG), and GpA369(hum)-C198A+R52C migrated at an even higher apparent molecular weight since this variant can react with two PEG molecules (for a total of an extra 20K Da supplied by two 10K molecules linked to the enzyme). Of note, the GpA369-C198A-K225C-E340C-E49C-Q257C mutant was prepared, expressed, purified and PEGylated with mPEG-10K."}, "[8]": {"target": "T4, guinea pig L-asparaginase (GpA) variant 40K-PEGylated-GpA369-C198A, SEQ ID NO:51 (Cavia porcellus, UniProt H0W0T5, C198A)", "T4 construct": "made in house", "T4 sequence (H0W0T5 1-369 C198A)": "as above", "experiment": "L-asparaginase activity, kobs at 2 mM Asn", "assay_type": "biochemical", "settings": "linear PEG", "description": "as §1, §2"}, "[9]": {"target": "T5, guinea pig L-asparaginase (GpA) variant 20K-PEGylated-GpA369-C198A, SEQ ID NO:51 (Cavia porcellus, UniProt H0W0T5, C198A)", "T5 construct": "made in house", "T5 sequence (H0W0T5 1-369 C198A)": "as above", "experiment": "L-asparaginase activity, kobs at 2 mM Asn", "assay_type": "biochemical", "settings": "linear PEG", "description": "as §1, §2"}},
  "note": "Values joined by “and” are separate entries in the source; they are usually repeats but may differ in a detail not shown here. Equal entries are not always repeated.",
  "data": [
    {"molecule": "NC(=O)C[C@H](N)C(=O)O", "note": "[Asn, L-asparagine]", "values": [
      {"measurement": "reaction rate (kcat)", "setting": "[1]", "result": "approximately 39 s^−1"},
      {"measurement": "Km for Asn", "setting": "[1]; in words", "result": "in the micromolar range"},
      {"measurement": "Km", "setting": "[1]; read-out: Km for Asn", "result": 58, "unit": "µM"},
      {"measurement": "kobs @50 μM", "setting": "[2]; 50 μM Asn, pH 7.5, 37° C.", "result": "20 s⁻¹ and 20 ± 1 s⁻¹"},
      {"measurement": "kobs at 2 mM ASN", "setting": "[2]; 2 mM Asn, full length GpA", "result": 41, "unit": "s⁻¹"},
      {"measurement": "Km", "setting": "[2]; pH 7.5, 37° C., 10 nM enzyme", "result": "50 ± 7", "unit": "µM"},
      {"measurement": "kcat", "setting": "[2]; pH 7.5, 37° C., 10 nM enzyme", "result": "41 ± 2", "unit": "s⁻¹"},
      {"measurement": "kobs @50 μM", "setting": "[3]", "result": "41 ± 0.3", "unit": "s⁻¹"},
      {"measurement": "kcat", "setting": "[4]; Hill-equation (n = 2.1), pH 7.5, 37° C., 50 nM enzyme", "result": "17 ± 0.8", "unit": "s⁻¹"},
      {"measurement": "Hill coefficient n", "setting": "[4]; Hill-equation fit", "result": "*Kinetic parameters using the Hill-equation (n = 2.1)"},
      {"measurement": "Km value for Asn", "setting": "[5]", "result": "very high"},
      {"measurement": "Km for Asn", "setting": "[6]", "result": "in the millimolar range"},
      {"measurement": "kobs at 2 mM ASN", "setting": "[7]", "result": 83.3, "unit": "s⁻¹"},
      {"measurement": "kobs at 2 mM ASN", "setting": "[8]", "result": 76.5, "unit": "s⁻¹"},
      {"measurement": "kobs at 2 mM ASN", "setting": "[9]", "result": 83.7, "unit": "s⁻¹"}
    ]}
  ]
}
